Earlier results, collected in US6495121B2, “Chewing gum containing dipetide sweetener with lengthened and improved flavor” (Holland Sweetner Company V.O.F., priority 1996, dated 2002).
Where a SMILES comes first, the peptide text is derived from it.

Settings: relative to sucrose

## COC(=O)[C@H](Cc1ccccc1)NC(=O)[C@@H](N)CC(=O)O [Aspartame, α-L-aspartyl-L-phenylalaninemethylester] (H-Asp-Phe-OMe)
  sweetening power: approximately 200 × that of sucrose

## C[C@@H](NC(=O)[C@@H](N)CC(=O)O)C(=O)NC1C(C)(C)SC1(C)C.O [Alitame, L-α-aspartyl-n-(2,2,4,4-tetramethyl-3-thietanyl)-D-alanineamidehydrate]
  sweetening power: approximately 2000 × that of sucrose
